In ChEMBL document CHEMBL1201862, “PubChem BioAssay data set” (2004):
Activity calls are given as the source filed them.

What was measured:
Cytochrome P450 2D6 = Cytochrome P450 2D6 (Homo sapiens, UniProt P10635);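 note: CYP2D6 member of a cytochrome P450 panel assay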
H4 = assay: Luminescence Cell-Based Dose Response HTS to Identify Activators of 5'UTR Stem-Loop Driven Prion Protein mRNA Translation in H4 Neuroglioblastoma Cells. [Related pubchem assays: 1829 (Project Summary), 1814 (Primary HTS)]; assay type: functional; settings: Homo sapiens
[1] = Luminescence Cell-Based Dose Confirmation HTS to Identify Activators of 5'UTR Stem-Loop Driven Alpha-Synuclein mRNA Translation in H4 Neuroglioblastoma Cells. [Related pubchem assays: 1829 (Project Summary), 1814 (Primary HTS)]; assay type: functional
[2] = Luminescence Cell-Based Dose Response HTS to Identify Activators of Luciferase Translation or Activity in H4 […] Cells. [Related pubchem assays: 1829 (Project Summary), 1814 (Primary HTS)]; assay type: functional
Cytochrome P450 2C19 = Cytochrome P450 2C19 (Homo sapiens, UniProt P33261); assay: Cytochrome panel assay with activity outcomes. Panel member name: p450-cyp2c19 Compounds with AC50 equal or less than 10 uM are considered active; assay type: functional
Cytochrome P450 2C19, sequence (P33261 whole entry): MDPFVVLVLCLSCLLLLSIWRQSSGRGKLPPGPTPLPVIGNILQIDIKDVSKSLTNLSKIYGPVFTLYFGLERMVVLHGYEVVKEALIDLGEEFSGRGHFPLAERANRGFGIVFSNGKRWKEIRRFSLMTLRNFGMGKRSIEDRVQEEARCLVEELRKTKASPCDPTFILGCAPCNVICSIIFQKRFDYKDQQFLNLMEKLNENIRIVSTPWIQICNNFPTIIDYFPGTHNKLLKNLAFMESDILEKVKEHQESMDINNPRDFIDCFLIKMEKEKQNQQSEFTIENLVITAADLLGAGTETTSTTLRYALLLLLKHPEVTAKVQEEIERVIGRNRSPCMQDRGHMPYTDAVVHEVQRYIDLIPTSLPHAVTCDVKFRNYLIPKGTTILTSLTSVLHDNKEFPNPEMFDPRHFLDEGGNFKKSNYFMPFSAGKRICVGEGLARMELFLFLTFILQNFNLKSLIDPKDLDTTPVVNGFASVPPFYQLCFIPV

[3] = C. albicans growth with fluconazole, confirmation, fluorescence, retest (AID 2467); assay type: functional, cell-based
[4] = NIH-3T3 fibroblast cytotoxicity, dose response, cytotoxicity control, cell-based, fluorescence, Alamar Blue, secondary assay (AID 2327); assay type: functional;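 note: NIH-3T3 mouse fibroblasts cultured with fluconazole at 8 µg/mL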
Cytochrome P450 1A2 = target: T1, Cytochrome P450 1A2 (Homo sapiens, UniProt P05177);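 note: PubChem cytochrome P450 panel assay, CYP1A2 panel member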
T1 sequence (P05177 whole entry): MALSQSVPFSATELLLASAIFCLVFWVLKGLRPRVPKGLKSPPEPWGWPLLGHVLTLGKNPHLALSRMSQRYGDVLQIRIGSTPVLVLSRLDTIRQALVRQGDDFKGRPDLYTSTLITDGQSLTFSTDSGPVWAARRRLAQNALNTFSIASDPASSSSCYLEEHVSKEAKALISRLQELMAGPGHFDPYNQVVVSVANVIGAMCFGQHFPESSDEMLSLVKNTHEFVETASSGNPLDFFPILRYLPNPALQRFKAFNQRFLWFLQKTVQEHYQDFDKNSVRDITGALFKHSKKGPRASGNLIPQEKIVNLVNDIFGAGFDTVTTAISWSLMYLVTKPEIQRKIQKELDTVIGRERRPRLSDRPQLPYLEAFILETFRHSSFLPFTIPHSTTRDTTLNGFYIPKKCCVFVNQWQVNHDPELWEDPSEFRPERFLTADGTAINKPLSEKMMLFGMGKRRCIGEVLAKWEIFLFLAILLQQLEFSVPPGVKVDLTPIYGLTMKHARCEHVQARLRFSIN

Cytochrome P450 3A4 = Cytochrome P450 3A4 (Homo sapiens, UniProt P08684);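 note: CYP3A4 tested as one member of a cytochrome P450 panel screen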
Cytochrome P450 3A4, sequence (P08684 whole entry): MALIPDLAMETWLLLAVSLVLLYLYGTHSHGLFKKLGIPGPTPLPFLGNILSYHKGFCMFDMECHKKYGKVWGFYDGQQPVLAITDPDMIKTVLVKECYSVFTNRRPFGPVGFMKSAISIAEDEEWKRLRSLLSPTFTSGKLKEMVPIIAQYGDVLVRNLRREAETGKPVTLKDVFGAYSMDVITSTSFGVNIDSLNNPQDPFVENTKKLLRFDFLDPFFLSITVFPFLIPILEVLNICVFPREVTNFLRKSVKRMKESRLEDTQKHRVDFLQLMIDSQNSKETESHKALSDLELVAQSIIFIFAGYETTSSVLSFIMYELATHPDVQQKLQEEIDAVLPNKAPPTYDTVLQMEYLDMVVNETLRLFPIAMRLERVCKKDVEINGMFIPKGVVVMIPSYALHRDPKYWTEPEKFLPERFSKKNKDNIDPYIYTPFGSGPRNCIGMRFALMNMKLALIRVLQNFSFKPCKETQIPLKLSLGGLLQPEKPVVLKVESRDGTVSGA

[5] = target: T2, Corticotropin-releasing factor receptor 2/Corticotropin-releasing factor-binding protein (Homo sapiens, UniProt P24387+Q13324); assay: activators of CRF receptor 2 with binding protein – uHTS hits, confirmation (AID 602473); assay type: functional; settings: read-out: EC50_Mean
T2 sequence (Q13324 whole entry): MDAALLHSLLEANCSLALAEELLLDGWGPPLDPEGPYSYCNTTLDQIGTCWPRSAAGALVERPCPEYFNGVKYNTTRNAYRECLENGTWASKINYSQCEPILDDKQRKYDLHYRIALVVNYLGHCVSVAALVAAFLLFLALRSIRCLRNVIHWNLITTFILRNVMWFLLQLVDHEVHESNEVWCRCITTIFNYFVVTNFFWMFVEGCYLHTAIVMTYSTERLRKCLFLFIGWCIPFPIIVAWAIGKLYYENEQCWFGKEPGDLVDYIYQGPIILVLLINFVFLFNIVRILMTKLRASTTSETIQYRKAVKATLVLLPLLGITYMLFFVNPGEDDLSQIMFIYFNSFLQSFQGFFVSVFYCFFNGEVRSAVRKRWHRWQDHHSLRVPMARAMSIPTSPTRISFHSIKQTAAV
T2 sequence (P24387 whole entry): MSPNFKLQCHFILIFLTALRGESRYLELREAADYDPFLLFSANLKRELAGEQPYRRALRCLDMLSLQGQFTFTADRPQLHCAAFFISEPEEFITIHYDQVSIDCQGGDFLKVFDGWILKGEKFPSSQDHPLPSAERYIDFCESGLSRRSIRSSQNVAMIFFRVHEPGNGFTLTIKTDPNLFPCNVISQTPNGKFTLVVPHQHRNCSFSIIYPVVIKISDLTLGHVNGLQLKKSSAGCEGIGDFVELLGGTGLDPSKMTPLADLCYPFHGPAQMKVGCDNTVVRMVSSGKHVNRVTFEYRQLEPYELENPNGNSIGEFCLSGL

[6] = target: T2, Corticotropin-releasing factor receptor 2/Corticotropin-releasing factor-binding protein; assay: Dose Response confirmation of uHTS hits for small molecule antagonists of the CRF-binding protein and CRF-R2 receptor complex.; assay type: functional; settings: read-out: IC50_Mean
[7] = test system: Streptococcus sp. 'group A'; assay: growth inhibition of control SK(-) GAS strain, dose response, counter-screen for streptokinase expression inhibitor project, luminescence, kanamycin, BacTiterGlo, confirmation (AID 1900); assay type: functional, organism-based
Streptococcus = assay: Group A Streptococcus viability loss, dose response, counter-screen for streptokinase expression inhibitor project, luminescence, BacTiterGlo (AID 1915); assay type: functional, organism-based;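 note: potency for reduction of bacterial viability or growth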

Cytochrome P450 2D6, sequence (P10635 whole entry): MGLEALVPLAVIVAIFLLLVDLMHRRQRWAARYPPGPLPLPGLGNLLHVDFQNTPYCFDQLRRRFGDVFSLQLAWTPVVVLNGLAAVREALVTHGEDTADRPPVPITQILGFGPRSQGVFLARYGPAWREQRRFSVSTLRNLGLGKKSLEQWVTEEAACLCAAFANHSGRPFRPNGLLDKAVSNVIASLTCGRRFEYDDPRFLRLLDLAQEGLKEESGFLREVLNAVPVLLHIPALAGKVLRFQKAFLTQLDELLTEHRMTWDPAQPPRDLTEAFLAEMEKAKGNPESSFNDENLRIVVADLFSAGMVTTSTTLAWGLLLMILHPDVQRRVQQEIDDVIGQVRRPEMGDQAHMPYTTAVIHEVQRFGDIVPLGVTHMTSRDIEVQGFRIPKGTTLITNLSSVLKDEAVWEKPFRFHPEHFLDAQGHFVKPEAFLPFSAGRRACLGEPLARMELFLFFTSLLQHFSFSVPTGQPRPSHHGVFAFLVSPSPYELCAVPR

Cc1noc(C)c1C(=O)N1CCC2(CC1)CCN(C(c1ccccc1)c1ccccc1)CC2
AC50 (Cytochrome P450 2D6): 25.1 µM (inconclusive)

COc1ccc(C2C(C#N)=C(N)Nc3nc4ccccc4n32)cc1 (stereo not drawn)
EC50 (H4): 32.9 µM (active)
EC50 [1]: 12.1 µM (active)
EC50 [2]: 16.7 µM (active)

CCN1CCN(c2nc3c(c(=O)[nH]c(=O)n3C)n2CCCSc2ncccn2)CC1
AC50 (Cytochrome P450 2C19): inconclusive

Clc1ccc2c(N[C@H]3CC[C@H](N4CCCCC4)CC3)ccnc2c1
AC50 (Cytochrome P450 2D6): 3.98 µM (inconclusive)
AC50 (Cytochrome P450 2C19): inconclusive

O=C(CSCc1cccc(CSCC(=O)Nc2ccccc2)n1)Nc1ccccc1
EC50 [3]: > 38 µM (not active)
EC50 [4]: > 150 µM (inactive)

COC(=O)[C@@]1(Cc2ccccc2)[C@H]2c3cc(C(=O)N4CCCC4)n(Cc4ccc(C)o4)c3C[C@H]2CN1C(=O)c1ccccc1
AC50 (Cytochrome P450 2D6): 39.8 µM (inconclusive)
AC50 (Cytochrome P450 1A2): 12.6 µM (inconclusive)

Cc1cc(O)c(C(C)C)cc1CN1CCCCC1
AC50 (Cytochrome P450 2D6): 3.98 µM (inconclusive)
AC50 (Cytochrome P450 1A2): 1 µM (inconclusive)

Cc1nc(-c2cccc(NC(=O)c3cc4cc(Br)ccc4oc3=O)c2)cs1
AC50 (Cytochrome P450 3A4): 10 µM (inconclusive)
AC50 (Cytochrome P450 2C19; read-out: AC50): 20 µM (inconclusive)
AC50 (Cytochrome P450 1A2): 8.91 µM (inconclusive)

CC(C)(CNC(=O)c1ccc(Br)o1)CNC(=O)c1ccc(Br)o1
EC50 [5]: > 53 µM (inactive)
IC50 [6]: > 47.1 µM (inactive)

COCCNC(=O)CCn1c(=O)oc2ccccc21
AC50 (Cytochrome P450 2C19; read-out: AC50): 1.41 µM (inconclusive)

Cc1nc2nc(NC(=O)c3ccco3)nn2c(C)c1Cl
EC50 (H4): 15.5 µM (active)
EC50 [1]: 0.817 µM (active)
EC50 [2]: 14.3 µM (active)

CCOc1ccccc1NC(=O)CNC(=O)Cc1ccccc1
EC50 [5]: > 53 µM (inactive)
IC50 [6]: > 47.1 µM (inactive)

Cc1cc(S(=O)(=O)NC2CCCCC2)ccc1OCC(=O)NCC1CCCO1 (stereo not drawn)
EC50 [5]: > 53 µM (inactive)
IC50 [6]: > 47.1 µM (inactive)

O=C(Nc1ccc2c(c1)OCCO2)c1cc2sccc2n1Cc1ccc(F)cc1
EC50 (H4): > 120 µM (not active)
EC50 [1]: 0.94 µM (active)
EC50 [2]: 3.85 µM (active)

COc1ccc(/C=C/c2nc(O)cc(-c3ccccc3)n2)cc1
EC50 [5]: > 53 µM (inactive)
IC50 [6]: > 47.1 µM (inactive)

NS(=O)(=O)c1cccc(NC(S)=NCc2ccc3c(c2)OCO3)c1
EC50 [3]: > 38 µM (not active)
EC50 [4]: > 160 µM (inactive)

O=C(Nc1ccccc1)N1CCCC2(CCN(C(=O)Oc3ccccc3)CC2)C1
AC50 (Cytochrome P450 2D6): 20 µM (inconclusive)
AC50 (Cytochrome P450 1A2): 25.1 µM (inconclusive)

CC(C)(C)c1ccc(OCC(=O)NNC(=S)NC(=O)c2ccco2)c(Br)c1
EC50 [7]: < 0.06 µM (active)
EC50 (Streptococcus): 0.1 µM (active)

CCOC(=O)N1CCN(S(=O)(=O)c2ccc(C)c(C)c2C)CC1
EC50 [5]: > 53 µM (inactive)
IC50 [6]: > 47.1 µM (inactive)

COc1cc(SC)ccc1C(=O)OCC(=O)NC1CC1
EC50 [3]: > 38 µM (not active)
EC50 [4]: > 150 µM (inactive)

COc1ccc(Cc2c(N)nc(N)nc2N)cc1
AC50 (Cytochrome P450 2D6): 17.8 µM (inconclusive)

O=C(Nc1nnc(S(=O)(=O)N2CCOCC2)s1)c1cccc(F)c1
EC50 (H4): 14.6 µM (active)
EC50 [1]: 17.8 µM (active)
EC50 [2]: 9.48 µM (active)

COc1cc2c(cc1NC(=O)c1ccc3c(c1)OCO3)oc1ccccc12
EC50 (H4): 85.3 µM (active)
EC50 [1]: 5.37 µM (active)
EC50 [2]: 43.1 µM (active)
